Drawing on ChEMBL document CHEMBL1133207, “Syntheses and antifilarial profile of 7-chloro-4-(substituted amino) quinolines: a new class of antifilarial agents” (2000), this text covers Reduction for 21 compounds.

Active and inactive are the calls of the source. No cut-off for these calls is given here.

Test [1] relates to Mus musculus. Put plainly: In vivo macrofilaricidal activity against Acanthocheilonema viteae infection in Mastomys natalensis at 200 mg/kg for 5 days after peroral administration; Inactive. Also noted: dose 200 mg/kg. The test is classed as functional, organism-based.
The subject of test [2] is Mus musculus. Briefly: In vivo microfilariacidal activity against Acanthocheilonema viteae infection in Mastomys natalensis at 200 mg/kg for 5 days after peroral administration; Inactive. It is filed as functional, organism-based. Further details: dose 200 mg/kg.
The species named for test [3] is Mus musculus. Put plainly: The compound was evaluated for sterilization effect on female Acanthocheilonema viteae in Mastomys natalensis; Inactive. The test is classed as functional, organism-based.
Test [4] in a line: The compound was evaluated for sterilization effect on female Acanthocheilonema viteae in Mastomys natalensis. The test is classed as functional, Mus musculus. Also noted: concentration or dose not given beside the values.
The nature of test [5]: In vivo microfilariacidal activity against Acanthocheilonema viteae infection in Mastomys natalensis at 200 mg/kg for 5 days after peroral administration. The following applies: route oral. The test is classed as functional.
A short description of test [6]: In vivo macrofilaricidal activity against Acanthocheilonema viteae infection in Mastomys natalensis at 200 mg/kg for 5 days after peroral administration. The following applies: route oral. The test is classed as functional.

In the case of `NCC(=O)N1CCN(CCNc2ccnc3cc(Cl)ccc23)CC1`, the Reduction result with Mus musculus [1], with Mus musculus [2] and in the test listed under Mus musculus [3] was “inactive” each time.

Consider `O=[N+]([O-])c1ccc(NNc2ccnc3cc(Cl)ccc23)cc1`, for which the values for the Reduction in test [4], in test [5] and in test [6] were 50%, 41% and 78%, respectively.

For the compound `CC(C)(C)OC(=O)NC(Cc1ccccc1)C(=O)N1CCN(CCNc2ccnc3cc(Cl)ccc23)CC1` (stereo not drawn), the Reduction in test [4] is 50%; in test [5], 0%; in test [6], 0%.

Regarding `O=[N+]([O-])c1cc2c(NCCO)ccnc2cc1Cl`, the figures for the Reduction in test [4], in test [5] and in test [6] were 0%, 0% and 58%, respectively.

With `Clc1ccc2c(NCc3ccco3)ccnc2c1`, the Reduction result in the test with Mus musculus [1], in the test with Mus musculus [2] and in the test filed under Mus musculus [3] was “inactive” each time.

Consider `CC(C)(C)OC(=O)NCC(=O)N1CCN(CCNc2ccnc3cc(Cl)ccc23)CC1`, for which the figures for the Reduction in test [4], in test [5] and in test [6] were 63%, 0% and 0%, respectively.

For the compound `O=C(O)C(CCCCNc1ccnc2cc(Cl)ccc12)Nc1ccnc2cc(Cl)ccc12` (stereo not drawn), the Reduction worked out at 0% in test [4], 85% in test [5] and 0% in test [6].

Turning to `CCC(C)C(NC(=O)OC(C)(C)C)C(=O)N1CCN(CCNc2ccnc3cc(Cl)ccc23)CC1` (stereo not drawn), the Reduction entry with Mus musculus [1], with Mus musculus [2] and in the test listed under Mus musculus [3] was “inactive” each time.

Take `CC(N)C(=O)N1CCN(CCNc2ccnc3cc(Cl)ccc23)CC1` (stereo not drawn): the Reduction in test [4] is 100%; in test [5], 0%; in test [6], 0%.

For `CCN(CC)C(=O)N1CCN(C)CC1.O=C(O)CC(O)(CC(=O)O)C(=O)O` [DIETHYLCARBAMAZINE CITRATE], the figures for the Reduction in test [4], in test [5] and in test [6] were 0%, 90% and 0%, respectively.

With `CCC(C)C(N)C(=O)N1CCN(CCNc2ccnc3cc(Cl)ccc23)CC1` (stereo not drawn), the Reduction entry in the test on Mus musculus [1], in the test with Mus musculus [2] and in the test filed under Mus musculus [3] was “inactive” each time.

For the compound `Clc1ccc2c(NCCN3CCNCC3)ccnc2c1`, the Reduction entry in the test with Mus musculus [1], with Mus musculus [2] and in the test listed under Mus musculus [3] was “inactive” throughout.

For the compound `NC(Cc1ccccc1)C(=O)N1CCN(CCNc2ccnc3cc(Cl)ccc23)CC1` (stereo not drawn), the Reduction entry in the test with Mus musculus [1], in the test with Mus musculus [2] and in the test filed under Mus musculus [3] was “inactive” throughout.

As to `N#Cc1ccc(OCCNc2ccnc3cc(Cl)ccc23)cc1`, the Reduction in test [4] turned out to be 0%; in test [5] it was 0%; in test [6] it was 56%.

For `Clc1ccc2c(NCCN3CCN(c4ccccn4)CC3)ccnc2c1`, the Reduction result in the test on Mus musculus [1], in the test with Mus musculus [2] and in the test listed under Mus musculus [3] was “inactive” throughout.

In the case of `CC(NC(=O)OC(C)(C)C)C(=O)N1CCN(CCNc2ccnc3cc(Cl)ccc23)CC1` (stereo not drawn), the Reduction entry in the test with Mus musculus [1], with Mus musculus [2] and in the test listed under Mus musculus [3] was “inactive” throughout.

As to `O=C(C1CCCN1)N1CCN(CCNc2ccnc3cc(Cl)ccc23)CC1` (stereo not drawn), the Reduction entry with Mus musculus [1], in the test on Mus musculus [2] and in the test listed under Mus musculus [3] was “inactive” each time.

For the compound `OCCNc1ccnc2cc(Cl)ccc12`, the Reduction in test [4] was found to be 0%; in test [5], 86%; in test [6], 22%.

For `ClCCNc1ccnc2cc(Cl)ccc12`, the Reduction result in the test on Mus musculus [1], with Mus musculus [2] and in the test filed under Mus musculus [3] was “inactive” in each case.

Turning to `O=[N+]([O-])c1ccc(OCCNc2ccnc3cc(Cl)ccc23)cc1`, the Reduction result in the test on Mus musculus [1], with Mus musculus [2] and in the test listed under Mus musculus [3] was “inactive” in each case.

Take `CC(C)(C)OC(=O)N1CCCC1C(=O)N1CCN(CCNc2ccnc3cc(Cl)ccc23)CC1` (stereo not drawn): the Reduction entry with Mus musculus [1], in the test on Mus musculus [2] and in the test filed under Mus musculus [3] was “inactive” throughout.
